Results taken from patent US20230159496A1, “COMPOUNDS AND METHODS FOR MODULATING SPLICING” (REMIX THERAPEUTICS INC., priority 2020, published 2023).
Read-outs that look alike come from different tables or passages of the source.

Experiments:
Format in all cases: cell-based
[1] = test system: Target C CJ mRNA; assay: Gene panel canonical junction qPCR assay, Target C; settings: decrease in CJ mRNA levels, gene panel; read-out: Target C IC50
Method: (§1) The expression of a target mRNA was measured by detecting the formation of an exon-exon junction in the canonical transcript (CJ). A compound mediated exon-inclusion event was detected by observing an increase in formation of a new junction with an alternative exon (AJ). Real-time qPCR assays were used to detect these splicing switches and interrogate the potency of various compounds towards different target genes. A high-throughput real time quantitative PCR (RT-qPCR) assay was developed to measure these two isoforms of the mRNA (CJ and AJ) for an exemplary gene, HTT, together with a control housekeeping gene, GAPDH or GUSB or PPIA, used for normalization. Briefly, the A673 or K562 cell line was treated with various compounds described herein (e.g., compounds of Formula (I)). After treatment, the levels of the HTT mRNA targets were determined from each sample of cell lysate by cDNA synthesis followed by qPCR. The A673 cell line was cultured in DMEM with 10% FBS. Cells were diluted with full growth media and plated in a 96-well plate (15,000 cells in 100 ul media per well). The plate was incubated at 37° C. with 5% CO2 for 24 hours to allow cells to adhere. An 11-point 3-fold serial dilution of the compounds was made in DMSO then diluted in media in an intermediate plate. Compounds were transferred from the intermediate plate to the cell plate with the top dose at a final concentration of 10 uM in the well. Final DMSO concentration was kept at or below 0.25%. The cell plate was returned to the incubator at 37° C. with 5% CO2 for an additional 24 hours. The K562 cell line was cultured in IMDM with 10% FBS. For K562, cells were diluted with full growth media and plated in either a 96-well plate (50,000 cells in 50 uL media per well) or a 384-well plate (8,000-40,000 cells in 45 uL media per well). An 11-point 3-fold serial dilution of the compounds were made in DMSO then diluted in media in an intermediate plate. Compound was transferred from the intermediate plate to the cell plate with the top dose at a final concentration of 10 uM in the well. Final DMSO concentration was kept at or below 0.25%. Final volume was 100 uL for 96-well plate and 50 uL for 384-well plate. The cell plate was then placed in an incubator at 37° C. with 5% CO2 for 24 hours. The cells were then gently washed with 50 uL-100 uL cold PBS before proceeding to addition of lysis buffer. 30 uL-50 uL of room temperature lysis buffer with DNAse I (and optionally RNAsin) was added to each well. Cells were shaken/mixed thoroughly at room temperature for 5-10 minutes for lysis to take place and then 3 uL-5 uL of room temperature stop solution was added and wells were shaken/mixed again. After 2-5 minutes, the cell lysate plate was transferred to ice for RT-qPCR reaction setup. The lysates could also be frozen at −80° C. for later use. In some cases, a direct lysis buffer was used. An appropriate volume of 3× lysis buffer (10 mM Tris, 150 mM NaCl, 1.5%-2.5% Igepal and 0.1-1 U/uL RNAsin, pH 7.4) was directly added to either K562 or A673 cells in media and mixed by pipetting 3 times. The plates were then incubated at room temperature with shaking/rocking for 20-50 minutes to allow for lysis to take place. After this time, the cell lysate plate was transferred to ice to set up for the RT-qPCR reactions. The lysates could also be frozen at −80° C. for later use. To set up 10 uL RT-qPCR reactions, cell lysates were transferred to 384-well qPCR plates containing the master mix according to the table below. The plates were sealed, gently vortexed, and spun down before the run. The volumes were adjusted accordingly in some instances where the reaction was carried in 20 uL. The table below summarizes the components of the RT-qPCR reactions: The RT-qPCR reaction was performed using a QuantStudio (ThermoFisher) under the following fast cycling conditions. All samples and standards were analyzed at least in duplicate.

[2] = test system: HTT CJ mRNA; assay: Gene panel canonical junction qPCR assay, HTT; settings: decrease in CJ mRNA levels, gene panel; read-out: HTT IC50
Method: as §1

[3] = test system: SMN2 CJ mRNA; assay: Gene panel canonical junction qPCR assay, SMN2; settings: decrease in CJ mRNA levels, gene panel; read-out: SMN2 IC50
Method: as §1

[4] = test system: HTT mRNA; assay: Splicing assay (RT-qPCR) monitoring HTT canonical junction (CJ) and alternative junction (AJ) mRNA isoforms; settings: A673 or K562 cells, 24 h treatment, top dose 10 uM
Method: Compounds described herein were used to modulate RNA transcript abundance in cells. The expression of a target mRNA was measured by detecting the formation of an exon-exon junction in the canonical transcript (CJ). A compound mediated exon-inclusion event was detected by observing an increase in formation of a new junction with an alternative exon (AJ). Real-time qPCR assays were used to detect these splicing switches and interrogate the potency of various compounds towards different target genes. A high-throughput real time quantitative PCR (RT-qPCR) assay was developed to measure these two isoforms of the mRNA (CJ and AJ) for an exemplary gene, HTT, together with a control housekeeping gene, GAPDH or GUSB or PPIA, used for normalization. Briefly, the A673 or K562 cell line was treated with various compounds described herein (e.g., compounds of Formula (I)). After treatment, the levels of the HTT mRNA targets were determined from each sample of cell lysate by cDNA synthesis followed by qPCR.
• Cells-to-CT 1-step kit: ThermoFisher A25602, Cells-to-CT lysis reagent: ThermoFisher 4391851C, TaqMan™ Fast Virus 1-Step Master Mix: ThermoFisher 4444436 • GAPDH: VIC-PL, ThermoFisher 4326317E (Assay: Hs99999905_m1)—used for K562/suspension cell lines • GUSB: VIC-PL, ThermoFisher 4326320E (Assay: Hs99999908_m1)—used for K562/suspension cell lines • PPIA: VIC-PL, ThermoFisher 4326316E (Assay: Hs99999904_m1) — used for A673/adherent cell lines
The A673 cell line was cultured in DMEM with 10% FBS. Cells were diluted with full growth media and plated in a 96-well plate (15,000 cells in 100 ul media per well). The plate was incubated at 37° C. with 5% CO2 for 24 hours to allow cells to adhere. An 11-point 3-fold serial dilution of the compounds was made in DMSO then diluted in media in an intermediate plate. Compounds were transferred from the intermediate plate to the cell plate with the top dose at a final concentration of 10 uM in the well. Final DMSO concentration was kept at or below 0.25%. The cell plate was returned to the incubator at 37° C. with 5% CO2 for an additional 24 hours.
The K562 cell line was cultured in IMDM with 10% FBS. For K562, cells were diluted with full growth media and plated in either a 96-well plate (50,000 cells in 50 uL media per well) or a 384-well plate (8,000-40,000 cells in 45 uL media per well). An 11-point 3-fold serial dilution of the compounds were made in DMSO then diluted in media in an intermediate plate. Compound was transferred from the intermediate plate to the cell plate with the top dose at a final concentration of 10 uM in the well. Final DMSO concentration was kept at or below 0.25%. Final volume was 100 uL for 96-well plate and 50 uL for 384-well plate. The cell plate was then placed in an incubator at 37° C. with 5% CO2 for 24 hours.
The cells were then gently washed with 50 uL-100 uL cold PBS before proceeding to addition of lysis buffer. 30 uL-50 uL of room temperature lysis buffer with DNAse I (and optionally RNAsin) was added to each well. Cells were shaken/mixed thoroughly at room temperature for 5-10 minutes for lysis to take place and then 3 uL-5 uL of room temperature stop solution was added and wells were shaken/mixed again. After 2-5 minutes, the cell lysate plate was transferred to ice for RT-qPCR reaction setup. The lysates could also be frozen at −80° C. for later use.
In some cases, a direct lysis buffer was used. An appropriate volume of 3× lysis buffer (10 mM Tris, 150 mM NaCl, 1.5%-2.5% Igepal and 0.1-1 U/uL RNAsin, pH 7.4) was directly added to either K562 or A673 cells in media and mixed by pipetting 3 times. The plates were then incubated at room temperature with shaking/rocking for 20-50 minutes to allow for lysis to take place. After this time, the cell lysate plate was transferred to ice to set up for the RT-qPCR reactions. The lysates could also be frozen at −80° C. for later use. […]

[5] = decrease in CJ mRNA (50% response), read-out: HTT CJ AC50
[6] = increase in AJ mRNA (50% response), read-out: HTT AJ AC50

Row | IC50 [1] [µM] | IC50 [2] [µM] | IC50 [3] [µM] | SMILES | AC50 [4, 5] [µM] | AC50 [4, 6] [µM]
1 | 1 to 10 | 1 to 10 | 1 to 10 | Cc1cn2nc(-n3cnc4cc(N5CCNCC5)ccc4c3=O)cc(C)c2n1 [Compound 241, 3-(2,8-dimethylimidazo[1,2-b]pyridazin-6-yl)-7-(piperazin-1-yl)quinazolin-4(3H)-one] | 1 to 10 | 1 to 10
2 | > 10 | 1 to 10 | 0.1 to 1 | Cc1cn2nc(-c3ccc4c(c3)CCN(C3CCNCC3)C4=O)cc2c(C)n1 [Compound 223] | 1 to 10 | 1 to 10
3 | > 10 | 1 to 10 | 0.1 to 1 | Cc1cn2cc(-c3ccc4c(=O)n(C5CCNCC5)ncc4c3)ncc2n1 [Compound 255] | 1 to 10 | 1 to 10
4 | 1 to 10 | 0.1 to 1 | < 0.1 | Cc1cn2cc(-c3ccc4c(=O)n(C5CCNCC5)ncc4c3)cc(C)c2n1 [Compound 257] | 0.1 to 1 | 0.1 to 1
5 | 0.1 to 1 | 0.1 to 1 | < 0.1 | Cc1cn2nc(-c3ccc4c(=O)n(C5CCNCC5)cnc4c3)cc(C)c2n1 [Compound 181] | 0.1 to 1 | 0.1 to 1
6 | 0.1 to 1 | 0.1 to 1 | < 0.1 | Cc1cn2cc(-c3ccc4c(=O)n(C5CCNC6(CC6)C5)cnc4c3)cc(F)c2n1 (stereo not drawn) [Compound 236, 7-(8-fluoro-2-methylimidazo[1,2-a]pyridin-6-yl)-3-(4-azaspiro[2.5]octan-7-yl)quinazolin-4(3H)-one] | 0.1 to 1 | 0.1 to 1
7 | > 10 | > 10 | 0.1 to 1 | Cc1cn2cc(-c3ccc4c(c3)CCN(C3CCNCC3)C4=O)cc(C(F)(F)F)c2n1 [Compound 252, 6-[2-methyl-8-(trifluoromethyl)imidazo[1,2-a]pyridin-6-yl]-2-(piperidin-4-yl)-3,4-dihydroisoquinolin-1-one] | > 10 | > 10
8 | > 10 | > 10 | > 10 | Cc1cn2cc(-c3ccc4nc(NC5CCNCC5)[nH]c(=O)c4c3)cc(F)c2n1 [Compound 238] | > 10 | > 10
9 | > 10 | 1 to 10 | < 0.1 | Cc1cc(-c2ccc3c(=O)n(C4CCNCC4)cnc3c2F)cc2cn(C)nc12 [Compound 234, 7-(2,7-dimethyl-2H-indazol-5-yl)-8-fluoro-3-(piperidin-4-yl)quinazolin-4(3H)-one] | 1 to 10 | 1 to 10
10 | 1 to 10 | 0.1 to 1 | < 0.1 | Cc1cc(-c2cc(F)c3c(=O)n(C4CCN(C)CC4)cnc3c2)cc2cn(C)nc12 [Compound 233, 7-(2,7-dimethyl-2H-indazol-5-yl)-5-fluoro-3-(1-methylpiperidin-4-yl)quinazolin-4(3H)-one] | 0.1 to 1 | 0.1 to 1
11 | > 10 | > 10 | 0.1 to 1 | Cc1nc2c(F)cc(-c3ccc4c(c3)CCN(C3CCNCC3)C4=O)cc2s1 [Compound 226] | > 10 | > 10
12 | > 10 | > 10 | > 10 | O=C1c2ccc(-c3cn[nH]c3)cc2CCN1C1CCNCC1 [Compound 220] | > 10 | > 10
13 | 0.1 to 1 | < 0.1 | < 0.1 | Cc1cn2nc(-c3ccc4c(=O)n(C5CCN(C)CC5)ncc4c3)cc(C)c2n1 [Compound 265] | < 0.1 | < 0.1
14 | 1 to 10 | 1 to 10 | < 0.1 | Cc1nc2c(F)cc(-c3ccc4c(c3)CCN(C3CCNCC3)C4=O)cc2o1 [Compound 215] | 1 to 10 | 1 to 10

Row | SMILES | IC50 [1] [µM] | IC50 [2] [µM] | IC50 [3] [µM] | AC50 [4, 5] [µM] | AC50 [4, 6] [µM]
15 | CN1C2C=C(c3ccc4c(=O)n(-c5ccc6nn(C)cc6c5)cnc4c3)CC1CC2 (stereo not drawn) [Compound 161, 3-(2-methyl-2H-indazol-5-yl)-7-(8-methyl-8-azabicyclo[3.2.1]oct-2-en-3-yl)quinazolin-4(3H)-one] | > 10 | > 10 | > 10 | > 10 | > 10
